# Measured values taken from patent publication US6635642B1, “PARP inhibitors, pharmaceutical compositions comprising same, and methods of using same” (Guilford Pharmaceuticals Inc., priority 1997, dated 2003).
# Target: T1, purified recombinant human PARP (Homo sapiens, UniProt P09874)
# T1 construct: purchased Trevigen (Gaithersburg, Md.)
# Test: PARP enzyme assay ([3H]NAD incorporation, scintillation counting)
# Assay type: biochemical
# Conditions: not given
# Description: The reaction was initiated by incubating the mixture at 25° C. After 15 minutes' incubation, the reaction was terminated by adding 500 microliters of ice cold 20% (w/v) trichloroacetic acid. The precipitate formed was transferred onto a glass fiber filter (Packard Unifilter-GF/B) and washed three times with ethanol. After the filter was dried, the radioactivity was determined by scintillation counting.
# T1 sequence (P09874 whole entry): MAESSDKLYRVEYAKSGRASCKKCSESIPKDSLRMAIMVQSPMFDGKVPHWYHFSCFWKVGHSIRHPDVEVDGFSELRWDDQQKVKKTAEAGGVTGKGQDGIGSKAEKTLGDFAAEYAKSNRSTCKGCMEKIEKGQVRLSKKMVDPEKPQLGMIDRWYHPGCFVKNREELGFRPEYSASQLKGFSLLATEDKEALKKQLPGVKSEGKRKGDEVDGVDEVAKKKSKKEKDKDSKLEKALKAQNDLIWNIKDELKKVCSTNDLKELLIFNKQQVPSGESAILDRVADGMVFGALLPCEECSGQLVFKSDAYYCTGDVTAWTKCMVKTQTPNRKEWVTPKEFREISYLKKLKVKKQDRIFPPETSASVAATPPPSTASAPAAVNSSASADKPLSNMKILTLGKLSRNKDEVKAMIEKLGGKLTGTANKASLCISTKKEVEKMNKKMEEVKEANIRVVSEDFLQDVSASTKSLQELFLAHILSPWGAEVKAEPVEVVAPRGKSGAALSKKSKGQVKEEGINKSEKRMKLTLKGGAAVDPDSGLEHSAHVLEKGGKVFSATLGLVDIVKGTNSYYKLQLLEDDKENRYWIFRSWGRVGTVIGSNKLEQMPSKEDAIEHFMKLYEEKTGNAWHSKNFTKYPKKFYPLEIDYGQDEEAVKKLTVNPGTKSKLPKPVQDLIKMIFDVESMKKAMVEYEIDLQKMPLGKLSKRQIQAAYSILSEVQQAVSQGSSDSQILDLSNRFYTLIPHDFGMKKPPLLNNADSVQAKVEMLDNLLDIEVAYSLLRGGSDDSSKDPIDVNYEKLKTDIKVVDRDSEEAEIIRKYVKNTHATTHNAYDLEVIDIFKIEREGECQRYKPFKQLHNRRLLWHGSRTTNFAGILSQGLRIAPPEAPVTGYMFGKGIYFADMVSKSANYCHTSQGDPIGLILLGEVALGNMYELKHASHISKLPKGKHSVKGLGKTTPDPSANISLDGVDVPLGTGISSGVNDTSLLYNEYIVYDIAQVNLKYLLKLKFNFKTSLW
row,SMILES,IC50
1,Nc1ccc2c3c(cccc13)C(=O)NC2=O,0.09 µM
2,O=C1NCc2cccc3cccc1c23,0.54 µM
3,O=C1NCCc2c(OCCCCN3CCCCC3)cccc21 [drawing 52],1.9 µM

# Same assay, conditions: PARP inhibition; unit given as uM; read-out: Approximate IC50's
row,SMILES,IC50
1,O=C1NCC([N+](=O)[O-])c2ccccc21 (stereo not shown),1.6 µM
2,O=c1[nH]c(-c2ccccc2)cc2ccccc12,1.3 µM
3,NC(=O)c1cccc2cccc(C(=O)O)c12 [drawing 17],0.25 µM
4,O=c1[nH]ccc2c([N+](=O)[O-])cccc12,3.4 µM

# Same assay, conditions: PARP inhibition; unit inferred; read-out: Approximate IC50's
row,SMILES,IC50
1,COC(=O)c1c[nH]c(=O)c2ccccc12,1.1 µM
2,O=C1NCC2c3ccccc3Oc3cccc1c32 (stereo not shown),0.2 µM
3,O=c1[nH]c2cc([N+](=O)[O-])ccc2c2ccccc12,0.16 µM
4,O=c1[nH]nc2c3c(cccc13)Oc1ccc([N+](=O)[O-])cc1-2,0.062 µM
5,O=C1CNC(=O)c2cc(Cl)ccc2N1,1.6 µM
6,O=c1[nH]nc2c3c(cccc13)-c1ccc([N+](=O)[O-])cc1-2,0.056 µM
7,O=c1[nH]nc2c3c(cccc13)-c1ccccc1-2,0.14 µM
8,O=c1[nH]nc2c3c(cccc13)Oc1ccccc1-2,0.08 µM
9,O=c1[nH]nc(CN2CCN(c3ccccc3)CC2)c2ccccc12,4 µM
10,O=C1NC(=O)c2cc(O)cc3cccc1c23,0.81 µM
11,Nc1ccc2c(c1)-c1n[nH]c(=O)c3cccc-2c13,0.068 µM
12,O=C1NC(=O)c2ccc(S(=O)(=O)O)c3cccc1c23,4 µM
13,O=C(O)c1cccc2[nH]c(=O)c3ccccc3c12,5.1 µM
14,Nc1cccc2[nH]c(=O)c3ccccc3c12,0.1 µM
15,Nc1cccc2c1[nH]c(=O)c1ccccc12,0.76 µM
16,Nc1ccc2c(c1)-c1n[nH]c(=O)c3cccc(c13)O2,0.046 µM
17,O=c1[nH]nc2c3c(cccc13)Sc1ccccc1-2,0.11 µM
18,CN(C)c1ccc2c(c1)[nH]c(=O)c1ccccc12,0.31 µM
19,CN(C)c1ccc(-c2n[nH]c(=O)c3ccccc23)cc1N,0.22 µM
20,NC(=O)c1cccc2cccc(C(=O)O)c12 [drawing 59],0.25 µM
21,CN(C)c1ccc(-c2n[nH]c(=O)c3ccccc23)cc1[N+](=O)[O-],0.68 µM
22,O=C1NC(=O)c2ccc(Cl)c3cccc1c23,0.46 µM
23,O=c1[nH]nc(-c2ccc(Cl)cc2)c2ccccc12,0.36 µM
24,O=c1[nH]nc(CN2CCN(c3ccc(Cl)cc3)CC2)c2ccccc12,1.3 µM
25,O=c1[nH]nc2c3c(cccc13)CCc1ccccc1-2,0.4 µM
26,O=c1[nH]nc(-c2ccc(N3CCCCC3)c([N+](=O)[O-])c2)c2ccccc12,0.3 µM
27,O=C1NC(=O)c2ccc(SCCO)c3cccc1c23,2.8 µM
28,O=c1[nH]cc(Br)c2c(O)cccc12,0.6 µM
29,O=C1NCC(c2ccccc2)Oc2ccccc21 (stereo not shown),1.9 µM

# Same assay, conditions: PARP inhibition; unit μM; read-out: Approximate IC50's
row,SMILES,IC50
1,O=c1[nH]c2ccc(Br)cc2c2ccccc12,1.1 µM
2,O=c1[nH]c2ccccc2c2ccccc12,5.2 µM
3,O=c1[nH]c2cc(F)ccc2c2ccccc12,0.2 µM
4,O=c1[nH]c2ccc(Cl)cc2c2ccccc12,0.7 µM
5,Nc1ccc2c(c1)[nH]c(=O)c1ccccc12,4 µM
6,O=c1[nH]c2ccc([N+](=O)[O-])cc2c2ccccc12,0.9 µM
7,O=c1[nH]c2cc3ccccc3cc2c2ccccc12,100 µM

# Test system: male Long-Evans rats
# Test: Focal cerebral ischemia (right distal MCA cauterization with bilateral temporary CCA occlusion), infarct volume by TTC staining
# Conditions: in vivo administration, focal cerebral ischemia model in the rat
# Description: Focal cerebral ischemia was produced by cauterization of the right distal MCA (middle cerebral artery) with bilateral temporary common carotid artery occlusion in male Long-Evans rats for 90 minutes. All procedures performed on the animals were approved by the University Institutional Animal Care and Use Committee of the University of Pennsylvania. A total of 42 rats (weights: 230-340 g) obtained from Charles River were used in this study. The animals fasted overnight with free access to water prior to the surgical procedure.
# Two hours prior to MCA occlusion, varying amounts (control, n=14; 5 mg/kg, n=7; 10 mg/kg, n=7; 20 mg/kg, n=7; and 40 mg/kg, n=7) of the compound, 3,4-dihydro-5-[4-(1-piperidinyl)-butoxy]-1(2H)-isoquinolinone (“DPQ”) were dissolved in dimethyl sulfoxide (DMSO) using a sonicator. […]
# Two hours after MCA occlusion, the animals were given the same doses of the PARP inhibitor as in the pre-treatment. […] To avoid artifacts due to edema, the-damaged area was calculated by subtracting the area of the normal tissue in the hemisphere ipsilateral to the stroke from the area of the hemisphere contralateral to the stroke, by the method of Swanson et al., “A Semiautomated Method for Measuring Brain Infarct Volume”, J. Cereb. […] The total volume of infarction was calculated by summation of the damaged volume of the brain slices.
row,SMILES,"effect on infarct volume, overall"
1,"O=C1NCCc2c(OCCCCN3CCCCC3)cccc21 [DPQ, 3,4-dihydro-5-[4-(1-piperidinyl)-butoxy]-1(2H)-isoquinolinone]",substantial reduction in infarct volume

# Test system: human fibroblast cells lines (either W138 or BJ cells)
# Test: Extending proliferative capacity and lifespan of cells
# Assay type: cell-based
# Conditions: 10 uM; untreated cells stop dividing after about 40 days
# Description: At the time of subdivision, the media is aspirated, and the cells rinsed with phosphate buffer saline (PBS) and then trypsinized. The cells are counted with a Coulter counter and plated at a density of 10^5 cells per cm^2 in 6-well tissue culture plates in DMEM/199 medium supplemented with 10% bovine calf serum and varying amounts (0.10 uM, and 1 mM: from a 100×stock solution in DMEM/M199 medium) of a PARP inhibitor of Formula I as disclosed herein. This process is repeated every 7 days until the cell appear to stop dividing. The untreated (control) cells reach senescence and stop dividing after about 40 days in culture. […] The cells treated with 1 mM 3-AB will still divide after 60 days in culture.
row,SMILES,effect on lifespan of the cells
1,"NC(=O)c1cccc(N)c1 [Compound 3-AB, 3-aminobenzamide]",little or no effect

# Same assay, conditions: 100 uM; untreated cells stop dividing after about 40 days
row,SMILES,effect on lifespan of the cells
1,"NC(=O)c1cccc(N)c1 [Compound 3-AB, 3-aminobenzamide]",lengthen the lifespan of the cells

# Same assay, conditions: 1 mM; untreated cells stop dividing after about 40 days
SMILES,effect on lifespan and proliferative capacity of the cells,time in culture at which cells still divide
"NC(=O)c1cccc(N)c1 [Compound 3-AB, 3-aminobenzamide]",dramatically increases the lifespan and proliferative capacity of the cells,> 60 days

# Test system: rabbits
# Test: not given
# Conditions: 1 mg/kg single injection; cited from earlier work
row,SMILES,reduced infarct size
1,"Oc1cccc2c(O)nccc12 [1,5-dihydroxyisoquinoline]",38-48%

# Same assay, conditions: 10 mg/kg single injection one minute before occlusion or before reperfusion; cited from earlier work
row,SMILES,reductions in infarct size in the heart
1,"NC(=O)c1cccc(N)c1 [Compound 3-AB, 3-aminobenzamide]",32-42%

# Test system: rats
# Test: not given
# Conditions: trinitrobenzene sulfonic acid in 50% ethanol; cited from earlier work
row,SMILES,inflammatory response in colitis
1,"NC(=O)c1cccc(N)c1 [Compound 3-AB, 3-aminobenzamide]",reduced the inflammatory response

# Test system: not given
# Test: not given
# Conditions: in vivo; cited from earlier work
row,SMILES,"delayed, NO-mediated vascular failure in endotoxic shock"
1,NC(=O)c1cccnc1 [nicotinamide],"protects against delayed, NO-mediated vascular failure"
